melting point [°C]	SMILES
> 230	COC(=O)c1cc2cc(OC)c(OC)cc2c(-c2ccnc(-n3c(=O)ccc4ccccc43)c2)c1C(=O)OC
172	CCC1OCc2c1cnc(C)c2O (stereo not given)
111 to 114	CCOc1ccc(C2=NN(C3CCCC3)C(=O)[C@H]3CCCC[C@@H]23)cc1OCC (relative stereo)
204	O=C(CN1C(=O)c2ccccc2C1=O)Nc1ccccc1-c1ccccc1
65 to 68	COC(CNC(=O)c1ccc(N2CCN(C(=O)c3ccccc3C(F)(F)F)CC2)nn1)C(C)(C)C (stereo not given)
213	CC1=CC(C=O)(NC(c2ccccc2)(c2ccccc2)c2ccccc2)NC=C1 (stereo not given)
256 to 258	CN1CC(=O)Nc2ccc(C#N)cc2C1=O
152 to 154	O=C1N(Cc2ncccc2C(F)(F)F)c2ccccc2C12COc1cc3[nH]ncc3cc12 (stereo not given)
142 to 143	CN(C)c1ccc(-c2nc(Cl)c(CC#N)n2Cc2ccccc2)cc1Cl
73 to 75	O=C(c1ccc(F)cc1)C1(n2cncn2)CC1
51	C=CCc1c(C)cc(C)cc1O
84.5 to 86	CCOC(=O)C(=NOC)c1csc2cc(F)ccc12
236 to 238	COc1ncccc1C(=O)NC1CNCCn2c1nc(-c1ccncn1)cc2=O (racemic)
117 to 118	C#CCn1c(=O)c2ccccc2c(=O)c2ccccc21
255 to 257	O=C(O)c1ccc(Oc2ccccc2Oc2ccc(C(=O)O)cc2)cc1
75 to 80	CCc1cc(C(=O)c2ccccc2Cl)c(-n2c(CNC(=O)c3ccc(Cl)c(Cl)c3)nnc2C(F)(F)F)s1
103 to 105	CCCc1c(OCCCCc2cccc(O)c2O)ccc(C(C)=O)c1O
130 to 131	O=Cc1ccc2ccn(C3CCN(CCc4ccccc4F)CC3)c2c1
262 to 265	Cc1ccc(N2C(=O)C(O)=C(C(=O)c3ccc(C(C)(C)C)cc3)C2c2ccc(OC(F)(F)F)cc2)nn1 (stereo not given)
20	FC(F)(F)c1cc2ccccc2n1Cc1ccccc1
117 to 119	Cc1c(NC(=O)c2ccc(OC[C@@H]3CCCO3)cc2)ccc2cc(CNCC3(C)COC3)cnc12
233 to 234	CCOC(=O)c1ncn2c1c(=O)n(C)c1ncccc12

melting point [°C]	SMILES
198 to 201	CC(C)(C)SCC1Cn2cc(C(=O)NCc3ccc(Cl)cc3)c(=O)c3cc(CN4CCOCC4)cc(c32)O1 (stereo not given)
170 to 171	Cn1ncc(N2CCCCC2)c(C=NO)c1=O
196 to 198	CC(C)n1nc(-c2sc(C(=O)NCCN3CCOCC3)nc2-c2ccccc2)ccc1=O
144 to 147	CCN1CCC(n2nnnc2C2(c3cc(C(C)C)ccc3OC)C=CC(O)=CC2O)CC1 (stereo not given)
209 to 211	COc1ccc(OC)c(-c2cn(C)cc(C#N)c2=O)c1
55 to 58	CCOC(=O)NCC(=O)O
207	CC1(C)Cc2c(N)c(Cl)cc(C(=O)NC3CCN(CCNc4nc(O)c5cc(Cl)ccc5n4)CC3)c2O1
> 280	O=C1c2c(c(=O)n3nc(-c4ccccc4)cc3n2CC(=NO)c2ccccc2)CN1C1CCCCC1
143	[N-]=[N+]=NCCc1cccc2[nH]cc(S(=O)(=O)c3ccccc3)c12
194 to 195	OCc1ccc(-c2ccc(OCc3ccccc3)cc2)cc1
130 to 132	CCCCNC(=O)[C@H](C)C[C@H](O)[C@H](CC1CCCCC1)NC(=O)[C@H](Cc1cscn1)NC(=O)[C@@H](CC(=O)N1CCOCC1)Cc1ccc(OC)cc1
159 to 160	C[C@@H](NC(=NC#N)Nc1ccc(C#N)cc1)C(C)(C)C
102	COc1ccc(C(C#N)N(C)C(=O)C(Cl)Cl)cc1OC (stereo not given)
66 to 68	CCC(=O)c1ccc(-c2ccc(Cl)cc2)o1
149 to 150	CN(C(=O)c1ccc2nonc2c1)[C@H]1CC[C@H](N=[N+]=[N-])CC1
151 to 154	CC12C=CC(=O)NC1CCc1cc(Cl)ccc12 (stereo not given)
68	O=C(O)CCCCC=Cc1cccc(Cc2ccccc2)c1
113 to 117	N#CCOc1ccc2cc(-c3csc(-c4ccccc4)n3)ccc2c1
123	Cc1cccc(N2CCN(c3ccc(Oc4ccccc4)nn3)CC2)c1
200 to 205	COC(=O)c1cc(O)cnc1C1=NC(=O)C(C)(C(C)C)N1 (stereo not given)
170	O=C(/C=C/c1ccc(C(=O)Nc2cccc(Nc3nc(-c4cccnc4)cs3)c2)s1)NOC1CCCCO1 (stereo not given)
144 to 148	CCS(=O)(=O)CCON=Cc1nn(-c2c(Cl)cc(C(F)(F)F)cc2Cl)c(N)c1S(C)=O (stereo not given)

melting point [°C]	SMILES
82	Cc1cccc(C)c1NCC(=O)c1ccc(Cl)cc1
108	CC(C)c1ccc(C(=O)NC(C)c2ccc(Br)s2)cc1 (stereo not given)
152	O=Cc1c(C2CC2)nc2ccccc2c1-c1ccc(F)cc1
203 to 204	O=c1cc(C(F)(F)F)cc(-c2ccc(C(F)(F)F)cc2)[nH]1
159 to 160	Clc1ccc2nc(Cl)nc(-c3ccccc3)c2c1
100 to 105	Nc1nccnc1C(=O)N1CCCC1
303 to 305	Cc1nn(-c2ccc(C(=N)N)cc2)c(=O)n1-c1ccc(CCC(=O)O)cc1
94 to 96	ON=C(Cc1ccccc1)c1ccccc1
195 to 200	CC(NC(=O)Cc1cc(F)cc(F)c1)C(=O)NC1C(=O)NCc2ccc(F)cc21 (stereo not given)
174 to 177	O=C(O)C1CCCC(NC(=O)C(CS)Cc2ccccc2)C1 (stereo not given)
190 to 191	COC(=O)c1ccc(-c2nc3ccccc3o2)cc1
147 to 149	CCOC(=O)c1cc(C)n(-c2ccc([N+](=O)[O-])cn2)c1-c1ccccc1
129 to 130	CC(O)=C(C(=O)OCC(Cl)(Cl)Cl)N1C(=O)C(NC(=O)COc2ccccc2)C1SSc1nc2ccccc2s1 (stereo not given)
97.9 to 99.3	COc1ccc(NCCNC(=O)c2ccc(OCC=C(C)CCC=C(C)C)cc2)cn1
121 to 122	CCSC(C)(C)C(=O)CC(=O)Nc1cc(NC(=O)CCCOc2ccc(C(C)(C)CC)cc2C(C)(C)CC)ccc1Cl
240 to 241	S=C(NCc1cccnc1)c1[nH]c2ccc(Cl)cc2c1-c1ccccc1
124 to 126	C=CC(C)(C)C(=O)C(Oc1ccc(Cl)cc1)n1cnnc1 (stereo not given)
112 to 116	C[C@@H]1Cc2ccsc2[C@H](C)N1CCCCNC(=O)c1ccc(NS(C)(=O)=O)cc1 (relative stereo)
110 to 111	COc1ccccc1C1(C(C)(C)O)CCN(C)CC1
122 to 124	CC(=O)c1ccc(OCCCN2CCC(c3noc4cc(F)ccc34)CC2)c(O)c1
126 to 127	CC(=O)Oc1cc(OCCF)ccc1C(=O)O
192	O=C(C[C@H]1CCCO1)N[C@H]1CC[C@H](CCN2CCC(c3cccc4c3CCO4)CC2)CC1

SMILES	melting point [°C]
CC(=O)Nc1ccc2c(c1)CC(=O)N2CCN1CCN(Cc2ccccc2)CC1	145 to 147
CCCNc1ccc(C#CCCN2CC=C(c3ccccc3)CC2)nc1	138 to 139
Cc1cc(C2=NOC(c3cc(C(F)(F)F)cc(C(F)(F)F)c3)(C(F)(F)F)C2)ccc1Br (stereo not given)	108 to 110
Cc1ccc(OC(=O)Cl)cc1	60 to 61.5
